Results on 3 compounds are retold here after patent US11078450B2, “Material containing solid bleaching agent, and detergent composition” (SHIKOKU CHEMICALS CORPORATION, priority 2016, dated 2021).

Data set [1] in a line: Stability test 2 (long-term storage test). It is filed as physicochemical. The note with it: in pasty detergent composition. The procedure:
In a stainless steel beaker were charged 5 g of distilled water and 3 g of potassium carbonate, and the potassium carbonate was dissolved. […] . The pasty detergent composition heated to 60° C. was accurately weighed within a range of from 2.5 to 3.5 g, a mass thereof was recorded up to 3 decimal places, and added so as to be superimposed on the solid bleaching agent-containing material or sodium dichloroisocyanurate, to thereby prepare detergent compositions containing the solid bleaching agent-containing material or the solid bleaching agent. […] One month later, the entire amount of the detergent composition containing the solid bleaching agent-containing material or the solid bleaching agent in the cup was dissolved in about 100 ml of distilled water, and the effective chlorine retention rate was evaluated from the effective chlorine content in the same manner as in the case of the stability test 1.
. […] The case where the effective chlorine retention rate was less than 5% was evaluated as failed which is denoted by B, because an effect of improving stability was hardly recognized. The case where the effective chlorine retention rate was 5% or more was evaluated as pass which is denoted by A, because an effect of improving stability was recognized. […]

Data set [2] can be described thus: Stability test 1 (storage test), effective chlorine retention rate.
Experimental: In the case where the solid bleaching agent is a chlorine bleaching agent, an effective chlorine content (in terms of Cl2) in the solid bleaching agent-containing material can be calculated by Expression 3 by using an iodine titration method. That is, iodine which is liberated by the reaction of active chlorine and potassium iodide is titrated with sodium thiosulfate solution, and the effective chlorine content is calculated by the following Expression 3.
(§1) A stability of the solid bleaching agent-containing material having a coating layer thus obtained can be evaluated on the basis of how much an effective chlorine retention rate or effective oxygen retention rate after a storage test under certain conditions is improved before and after coating. The effective chlorine retention rate (%) is defined by the following Expression 9. […] Similarly, in the case where the solid bleaching agent is an oxygen bleaching agent, the stability of the solid bleaching agent is defined by the effective oxygen retention rate (%). […] Effective chlorine or effective oxygen retention rate (%)=R1×100/R2 (Expression 9)
Distilled water was added thereto to be about 100 ml, and about 1 g potassium iodide and about 5 ml of a 50% by mass acetic acid aqueous solution were further added and stirred for about 5 minutes. The liberated iodine was titrated with a 0.1 N sodium thiosulfate aqueous solution. After a yellow color of the solution became thin, approximately 1 ml of an aqueous solution of starch (10 g/L) was added as an indicator and the titration was continued until a blue color of the generated iodine-starch disappeared. The effective chlorine content (%) was determined from the titration amount of the sodium thiosulfate aqueous solution.
(§2) At this time, room temperature was 20° C. and relative humidity was 40%.
Data set [3] can be described thus: Stability test 3 (abrasion test). It is filed as physicochemical. The note with it: uncoated; storage 40° C., 75% RH, 3 months. The procedure: In order to evaluate a stability in the case where a physical impact was applied to the solid bleaching agent-containing materials having a coating layer prepared in Examples 1, 25, 28, 31, 35, 36, 37, 38, and 39, an abrasion test was carried out by using a tablet abrasion tester (manufactured by Toyama Sangyo Co., Ltd.). This tablet abrasion tester is composed of a plastic drum container having an inner diameter of about 286 mm and a depth of about 38 mm, and an electric part rotating the drum container in a vertical direction. Inside the drum container, a partition plate is provided so that a test sample in the container is lifted up to about 157 mm in height and falls each time when the drum container makes one rotation. Such a tablet abrasion tester is readily available. […]
The case where the effective chlorine retention rate was less than 5% was evaluated as failed which is denoted by B because an effect of improving stability was hardly recognized. The case where the effective chlorine retention rate was 5% or more and less than 10% was evaluated as pass which is denoted by A, because an effect of improving stability was recognized. The case where the effective chlorine retention rate was 10% or more was evaluated as particularly excellent among passes, which is denoted by S. The results were as shown in Table 27.

Data set [4] in a line: Stability test 1 (storage test), effective oxygen retention rate. The settings on record: uncoated solid bleaching agent (before coating).
Experimental: Even in the case of the oxygen solid bleaching agent, an effective oxygen content (in terms of O2) in the solid bleaching agent-containing material can be calculated by using an iodine titration method. That is, iodine which is liberated by the reaction of active oxygen and potassium iodide is titrated with a sodium thiosulfate solution, and the effective oxygen content is calculated by Expression 4. In order to accelerate the reaction between active oxygen and potassium iodide, a small amount of ammonium molybdate aqueous solution adjusted to 1% by mass may be added. […] Effective oxygen content (%)=a×f×0.08000/b (Expression 4)
as §1, §2
The conditions of data set [5]: per 100 g of water; cited from earlier work.
Setting [6] is: uncoated solid bleaching agent (before coating).

With `O=c1nc([O-])n(Cl)c(=O)n1Cl.[Na+]` [Sodium dichloroisocyanurate], in data set [1] (1 month, 40° C., 75% RH), the “Stability test 2: effective chlorine retention rate” value worked out at 0%. Also, in data set [1] (uncoated, after 1 month), the “Stability test 2: before coating, effective chlorine retention rate (%)” value was found to be 0%. Further, the “Stability test 1: before coating, effective chlorine retention rate (%)” value in data set [2] (setting [6]) stood at 12%; in data set [2] (unprocessed solid bleaching agent mixed with detergent components and 3 ml tap water at 60° C., 18 hours at room temperature), 12%. Moreover, in data set [3], the “Stability test 3: before coating, effective chlorine retention rate (%)” value came out at 0%.
In the case of `O=C([O-])[O-].O=C([O-])[O-].OO.OO.OO.[Na+].[Na+].[Na+].[Na+]` [Sodium percarbonate], the “Stability test 1: before coating, effective oxygen retention rate (%)” value in data set [4] is 25%.
As to `O=c1n(Cl)c(=O)n(Cl)c(=O)n1Cl` [trichloroisocyanuric acid, Trichloroisocyanuric acid], the “solubility with respect to water of 100 g” value in data set [5] is recorded as 1.2 g. For the same compound, in data set [2] (setting [6]), the “Stability test 1: before coating, effective chlorine retention rate (%)” value is listed as 30%.
